For one experiment, the system named is MDA-MB-231. Nature of the experiment: Antiproliferative activity against human MDA-MB-231 cells measured by MTT assay. It is filed as functional, cell-based.
The next experiment has as its system MCF7. The experiment is described as follows: Antiproliferative activity against human MCF-7 cells measured by MTT assay. Type of experiment: functional, cell-based. Background: Tetrazolium assays rely on reduction of a dye to a coloured formazan, in cell work by metabolically active cells.

Each structure is given as a SMILES string.

By IC50 is commonly meant the concentration at which inhibition is half-maximal. A low value points to greater potency.

In the case of `CC/C=C\C/C=C\C/C=C\CCCCCCCC1(O)CC(=O)c2c(O)cc(O)cc2O1` (stereo not given), the results for the IC50 in the experiment on MDA-MB-231 and in the experiment with MCF7 were 6.79 µM and 17.5 µM, respectively.

Take `CCCCC/C=C\C/C=C\CCCCCCCC1(O)CC(=O)c2c(O)c(C)c(O)c(C)c2O1` (stereo not given): the IC50 with MDA-MB-231 worked out at 42.8 µM; in the experiment on MCF7, 43.2 µM.

As to `CCCC/C=C\CCCCCCCCCc1cc(=O)c2c(O)cc(OCOC)c(C)c2o1`, the results for the IC50 in the experiment with MDA-MB-231 and with MCF7 were greater than 87 µM and greater than 67.3 µM, respectively.

For `CCCCCCCCCCCCCCCc1cc(=O)c2c(O)cc(O)cc2o1`, the IC50 with MDA-MB-231 was determined as 6.79 µM; in the experiment on MCF7 it was 17.5 µM.

Take `CCCC/C=C\CCCCCCCCCc1cc(=O)c2c(O)cc(O)c(C)c2o1`: the IC50 with MDA-MB-231 was 6.79 µM; in the experiment on MCF7 it was 17.5 µM.

For `CCCCC/C=C\C/C=C\CCCCCCCC1(O)CC(=O)c2c(O)cc(OCOC)cc2O1` (stereo not given), the IC50 in the experiment with MDA-MB-231 was 16.1 µM; in the experiment on MCF7 it was greater than 84.1 µM.

In the case of `CCCC/C=C\CCCCCCCCCC1(O)CC(=O)c2c(O)cc(OCOC)cc2O1` (stereo not given), the IC50 with MDA-MB-231 stood at 42.8 µM; with MCF7, 43.2 µM.

As for `CCCCCCCCCCCCCCCCCCCC1(O)CC(=O)c2c(O)cc(O)cc2O1` (stereo not given), the IC50 was greater than 87 µM in the experiment with MDA-MB-231 and greater than 67.3 µM in the experiment on MCF7.

As for `CC/C=C\C/C=C\C/C=C\CCCCCCCC1(O)CC(=O)c2c(O)cc(OCOC)cc2O1` (stereo not given), the IC50 was 6.79 µM with MDA-MB-231 and 17.5 µM in the experiment on MCF7.

For the compound `CCCC/C=C\CCCCCCCCCc1cc(=O)c2c(O)c(C)c(O)cc2o1`, the IC50 in the experiment on MDA-MB-231 came to 42.8 µM; in the experiment on MCF7, 43.2 µM.

For `CCCCCCCCCCCCCCCc1cc(=O)c2c(O)cc(OCOC)c(C)c2o1`, the figures for the IC50 in the experiment with MDA-MB-231 and with MCF7 were greater than 87 µM and greater than 67.3 µM, respectively.

For the compound `CC/C=C\C/C=C\C/C=C\CCCCCCCc1cc(=O)c2c(O)c(C)c(O)c(C)c2o1`, the results for the concentration for half-maximal inhibition (IC50) in the experiment on MDA-MB-231 and in the experiment with MCF7 were 6.79 µM and 17.5 µM, respectively.

Turning to `CCCC/C=C\CCCCCCCCCc1cc(=O)c2c(O)c(C)c(OCOC)c(C)c2o1`, the IC50 in the experiment with MDA-MB-231 was greater than 87 µM; with MCF7, greater than 67.3 µM.

Consider `CC/C=C\C/C=C\C/C=C\CCCCCCCc1cc(=O)c2c(O)cc(OCOC)cc2o1`, for which the figures for the IC50 with MDA-MB-231 and with MCF7 were 6.79 µM and 17.5 µM, respectively.

On to `CCCCCCCCCCCC1(O)CC(=O)c2c(O)cc(O)cc2O1` (stereo not given), for which the IC50 in the experiment with MDA-MB-231 turned out to be 42.8 µM; in the experiment with MCF7, 43.2 µM.

As for `CCCCC1(O)CC(=O)c2c(O)cc(O)cc2O1` (stereo not given), the values for the IC50 in the experiment with MDA-MB-231 and with MCF7 were greater than 87 µM and greater than 67.3 µM, respectively.

Regarding `CC/C=C\C/C=C\C/C=C\CCCCCCCc1cc(=O)c2c(O)cc(O)c(C)c2o1`, the IC50 with MDA-MB-231 came out at 6.79 µM; with MCF7, 17.5 µM.

In the case of `CCCCC/C=C\C/C=C\CCCCCCCc1cc(=O)c2c(O)cc(O)c(C)c2o1`, the IC50 worked out at 6.79 µM with MDA-MB-231 and 17.5 µM with MCF7.

With `CCCC/C=C\CCCCCCCCCc1cc(=O)c2c(O)c(C)c(O)c(C)c2o1`, the IC50 was greater than 87 µM in the experiment on MDA-MB-231 and greater than 67.3 µM in the experiment on MCF7.

On to `CCCCC/C=C\C/C=C\CCCCCCCc1cc(=O)c2c(O)cc(O)cc2o1`, for which the IC50 was 6.79 µM with MDA-MB-231 and 17.5 µM in the experiment with MCF7.

For `CCCC/C=C/CCCCCCCCCC1(O)CC(=O)c2c(O)cc(O)cc2O1` (stereo not given), the values for the IC50 in the experiment with MDA-MB-231 and with MCF7 were 18.7 µM and 33.9 µM, respectively.

With `CC/C=C\C/C=C\C/C=C\CCCCCCCc1cc(=O)c2c(O)c(C)c(OCOC)cc2o1`, the results for the IC50 with MDA-MB-231 and with MCF7 were 6.79 µM and 17.5 µM, respectively.

Regarding `CCCCCCCCCCCCCCCc1cc(=O)c2c(O)c(C)c(O)cc2o1`, the figures for the IC50 in the experiment on MDA-MB-231 and with MCF7 were 42.8 µM and 43.2 µM, respectively.

As for `CC/C=C\C/C=C\C/C=C\CCCCCCCc1cc(=O)c2c(O)c(C)c(OCOC)c(C)c2o1`, the IC50 with MDA-MB-231 is 16.1 µM; in the experiment with MCF7, greater than 84.1 µM.

With `CCCCCCCCCCCCCCCC1(O)CC(=O)c2c(O)c(C)c(O)c(C)c2O1` (stereo not given), the half-inhibitory concentration (IC50) was 16.1 µM in the experiment with MDA-MB-231 and greater than 100 µM in the experiment on MCF7.

For `CCCCC/C=C\C/C=C\CCCCCCCc1cc(=O)c2c(O)c(C)c(O)cc2o1`, the IC50 in the experiment with MDA-MB-231 was 16.1 µM; with MCF7, greater than 84.1 µM.

As for `CCCC/C=C\CCCCCCCCCc1cc(=O)c2c(O)c(C)c(OCOC)cc2o1`, the values for the IC50 with MDA-MB-231 and in the experiment with MCF7 were greater than 87 µM and greater than 67.3 µM, respectively.

Consider `CCCCC/C=C\C/C=C\CCCCCCCc1cc(=O)c2c(O)cc(OCOC)cc2o1`, for which the values for the IC50 in the experiment on MDA-MB-231 and in the experiment with MCF7 were greater than 87 µM and greater than 67.3 µM, respectively.

For the compound `CC/C=C\C/C=C\C/C=C\CCCCCCCc1cc(=O)c2c(O)c(C)c(O)cc2o1`, the IC50 in the experiment with MDA-MB-231 came to 6.79 µM; with MCF7 it was 17.5 µM.

In the case of `CCCC/C=C\CCCCCCCCCc1cc(=O)c2c(O)cc(O)cc2o1`, the 50% inhibitory concentration (IC50) with MDA-MB-231 amounted to 6.79 µM; with MCF7 it was 17.5 µM.

Consider `CC/C=C\C/C=C\C/C=C\CCCCCCCC1(O)CC(=O)c2c(O)c(C)c(O)c(C)c2O1` (stereo not given), for which the IC50 with MDA-MB-231 was 42.8 µM; in the experiment with MCF7, 43.2 µM.

Consider `CCCCC/C=C\C/C=C\CCCCCCCc1cc(=O)c2c(O)c(C)c(OCOC)cc2o1`, for which the IC50 is greater than 87 µM in the experiment with MDA-MB-231 and greater than 67.3 µM in the experiment on MCF7.

Regarding `CCCCC/C=C\C/C=C\CCCCCCCc1cc(=O)c2c(O)cc(OCOC)c(C)c2o1`, the IC50 in the experiment with MDA-MB-231 is 16.1 µM; with MCF7, greater than 84.1 µM.

On to `CC/C=C\C/C=C\C/C=C\CCCCCCCc1cc(=O)c2c(O)cc(O)cc2o1`, for which the IC50 is 6.79 µM with MDA-MB-231 and 17.5 µM with MCF7.

`CCCCCCCCCCCCCCCc1cc(=O)c2c(O)cc(O)c(C)c2o1`: the IC50 worked out at 6.79 µM with MDA-MB-231 and 17.5 µM with MCF7.

As for `CCCCCCCCCCCCCCCC1(O)CC(=O)c2c(O)cc(OCOC)cc2O1` (stereo not given), the IC50 with MDA-MB-231 is greater than 87 µM; with MCF7 it was greater than 67.3 µM.

As to `CCCCC/C=C\C/C=C\CCCCCCCc1cc(=O)c2c(O)c(C)c(O)c(C)c2o1`, the values for the IC50 with MDA-MB-231 and in the experiment with MCF7 were 16.1 µM and greater than 84.1 µM, respectively.

As to `CCCCC/C=C\C/C=C\CCCCCCCC1(O)CC(=O)c2c(O)cc(O)cc2O1` (stereo not given), the figures for the IC50 in the experiment on MDA-MB-231 and with MCF7 were 6.79 µM and 17.5 µM, respectively.

`CCCCCCCCCCCCCCCC1(O)CC(=O)c2c(O)cc(O)cc2O1` (stereo not given): the IC50 was determined as 6.79 µM in the experiment on MDA-MB-231 and 17.5 µM with MCF7.

Turning to `CC/C=C\C/C=C\C/C=C\CCCCCCCc1cc(=O)c2c(O)cc(OCOC)c(C)c2o1`, the IC50 stood at 6.79 µM in the experiment on MDA-MB-231 and 17.5 µM in the experiment on MCF7.

Take `CCCCCCCCCCCCCCCc1cc(=O)c2c(O)c(C)c(O)c(C)c2o1`: the IC50 in the experiment on MDA-MB-231 was greater than 87 µM; in the experiment with MCF7 it was greater than 67.3 µM.

Regarding `CCCC/C=C\CCCCCCCCCc1cc(=O)c2c(O)cc(OCOC)cc2o1`, the IC50 in the experiment on MDA-MB-231 is greater than 87 µM; in the experiment with MCF7 it was greater than 67.3 µM.

In the case of `CCCCCCCCCCCCCCCc1cc(=O)c2c(O)c(C)c(OCOC)cc2o1`, the IC50 with MDA-MB-231 was greater than 87 µM; in the experiment on MCF7, greater than 67.3 µM.

As to `CCCCC/C=C\C/C=C\CCCCCCCc1cc(=O)c2c(O)c(C)c(OCOC)c(C)c2o1`, the IC50 was 16.1 µM in the experiment with MDA-MB-231 and greater than 84.1 µM with MCF7.

Take `CCCCCCCCCCCCCCCc1cc(=O)c2c(O)c(C)c(OCOC)c(C)c2o1`: the IC50 in the experiment on MDA-MB-231 was greater than 87 µM; in the experiment with MCF7, greater than 67.3 µM.

For the origin of these results see ChEMBL document CHEMBL5030514, “Discovery of Anti-TNBC Agents Targeting PTP1B: Total Synthesis, Structure-Activity Relationship, In Vitro and In Vivo Investigations of Jamunones” (J Med Chem, 2021).
